Results as given in patent US10688086B2, “Method for treating cancer with dihydropyridine calcium antagonist” (GERMARK BIOTECHNOLOGY CO., LTD, priority 2016, dated 2020).

Experiments:
[1] = test system: cancer patients; experiment: NHIRD statistical analysis, cancer patients overall; assay type: in vivo, human
Protocol: In this example, statistical analysis was performed on the statistics of the effects of Amlodipine in the treatment of cancers, using data from the National Health Insurance Research Database (NHIRD) covering detailed healthcare data for the population in Taiwan. Then, the diagnostic data at the time of admission in the database and the database of patients with registered major injuries were used, and statistical analysis was performed using data from patients with gastric cancer.
The dose of Amlodipine used in Example 1 was at least 120 mg/30 days. Therefore, in order to obtain the minimum effective dose, the survival rate of patients treated with Amlodipine for days in 90 days after cancer diagnosis was further statistically analyzed.

[2] = test system: liver cancer cells Hep3B; experiment: Cell cycle analysis by flow cytometry, Hep3B; assay type: cell-based
Protocol: (§1) Two liver cancer cell lines HepG2 and Hep3B were cultured. The medium used for the culture of the cells was DMEM medium containing 10% fetal bovine serum, 10,000 U/ml penicillin and 10,000 μg/ml streptomycin. The culture occurred in an environment at 37° C. with 5% CO2, and the medium was changed every 2-3 days during the culture. After the cells were cultured to about 70% confluence, they were treated with various concentrations of Amlodipine: 0, 1.5625, 3.125, 6.25, 12.5, 25, and 50 μM for various times: 48, and 72 hrs. After the experiment, the viability of each liver cancer cell line was observed and the cell viability and cell cycle were analyzed. The cell cycle of each liver cancer cell line treated under different conditions was analyzed by flow cytometry. […] Still further, each liver cancer cell line was treated with Amlodipine at a concentration of 12.5 μM for 0, 12, 24, 36 and 48 hrs, and the cell cycle was analyzed by flow cytometry.

[3] = test system: HepG2 cells; experiment: Cell invasion (Transwell, crystal violet), HepG2; assay type: cell-based; details: 10 μM, 72 hrs
Protocol: The HepG2 and Hep3B cells were separately cultured in the insert of the Transwell plate, then added with 10 μM Amlodipine and cultured for 48 or 72 hrs. The cells on the inner surface of the insert were taken out, and the insert was placed in methanol and stained with a crystal violet solution. […] That is, Amlodipine is effective in slowing the progression of cancers, thereby achieving a therapeutic effect in the treatment of cancers.

[4] = test system: HepG2 cells; experiment: Cell viability (WST-1 72 hrs; PI flow cytometry 48 hrs), HepG2; assay type: cell-based
Protocol: Two liver cancer cell lines HepG2 and Hep3B were cultured. The medium used for the culture of the cells was DMEM medium containing 10% fetal bovine serum, 10,000 U/ml penicillin and 10,000 μg/ml streptomycin. The culture occurred in an environment at 37° C. with 5% CO2, and the medium was changed every 2-3 days during the culture. After the cells were cultured to about 70% confluence, they were treated with various concentrations of Amlodipine: 0, 1.5625, 3.125, 6.25, 12.5, 25, and 50 μM for various times: 48, and 72 hrs. After the experiment, the viability of each liver cancer cell line was observed and the cell viability and cell cycle were analyzed. The HepG2 and Hep3B cells treated with various concentrations of Amlodipine for 72 hrs were added to WST-1 reagent. After 330 minutes of reaction, the absorbance at a wavelength of 420-480 nm was measured. The HepG2 and Hep3B cells treated with various concentrations of Amlodipine for 48 hrs were scraped off with 0.05% Trypsin-EDTA, and then added to 2 mg/ml PI solution. The cell viability was analyzed by flow cytometry.

[5] = test system: Hep3B cells; experiment: Western blotting of apoptosis-related proteins, Hep3B; assay type: cell-based; details: various concentrations, 24 hours
Protocol: The expression of apoptosis-related genes in each liver cancer cell line treated with various concentrations of Amlodipine for 24 hours were detected by Western blotting.

[6] = test system: patients having lung cancer; experiment: NHIRD statistical analysis of death/survival with vs without Amlodipine, lung cancer; assay type: in vivo, human
[7] = test system: liver cancer cells HepG2; experiment: Cell cycle analysis by flow cytometry, HepG2; assay type: cell-based
Protocol: as §1

[8] = 12.5 μM Amlodipine, treatment time 12 hr
[9] = 12.5 μM Amlodipine, treatment time 24 hr
[10] = 12.5 μM Amlodipine, treatment time 36 hr
[11] = 12.5 μM Amlodipine, treatment time 48 hr

CCOC(=O)C1=C(COCCN)NC(C)=C(C(=O)OC)C1c1ccccc1Cl (stereo not drawn) [Amlodipine]
mortality of cancer patients (in words) ([1]; Table 1, at least 120 mg/30 days): effectively reduce the mortality of cancer patients
survival rate of cancer patients (in words) ([1]; Table 2, FIGS. 1-8, 100 mg in 90 days, follow-up 3 years, vs no Amlodipine): increase the survival rate of cancer patients
Proportion of cell distribution in cell cycle (%) M1: ([2]; 1.5625 μM Amlodipine, 48 hrs): 5.34%
Proportion of cell distribution in cell cycle (%) M2: ([2]; 1.5625 μM Amlodipine, 48 hrs): 74.88%
Proportion of cell distribution in cell cycle (%) M3: ([2]; 1.5625 μM Amlodipine, 48 hrs): 7.06%
Proportion of cell distribution in cell cycle (%) M4: ([2]; 1.5625 μM Amlodipine, 48 hrs): 12.82%
Proportion of cell distribution in cell cycle (%) M1: ([2]; 3.125 μM Amlodipine, 48 hrs): 6.51%
Proportion of cell distribution in cell cycle (%) M2: ([2]; 3.125 μM Amlodipine, 48 hrs): 73.83%
Proportion of cell distribution in cell cycle (%) M3: ([2]; 3.125 μM Amlodipine, 48 hrs): 6.63%
Proportion of cell distribution in cell cycle (%) M4: ([2]; 3.125 μM Amlodipine, 48 hrs): 13.17%
Proportion of cell distribution in cell cycle (%) M1: ([2]; 6.25 μM Amlodipine, 48 hrs): 6.48%
Proportion of cell distribution in cell cycle (%) M2: ([2]; 6.25 μM Amlodipine, 48 hrs): 72.91%
Proportion of cell distribution in cell cycle (%) M3: ([2]; 6.25 μM Amlodipine, 48 hrs): 6.74%
Proportion of cell distribution in cell cycle (%) M4: ([2]; 6.25 μM Amlodipine, 48 hrs): 13.93%
Proportion of cell distribution in cell cycle (%) M1: ([2]; 12.5 μM Amlodipine, 48 hrs): 16.96%
Proportion of cell distribution in cell cycle (%) M2: ([2]; 12.5 μM Amlodipine, 48 hrs): 67.77%
Proportion of cell distribution in cell cycle (%) M3: ([2]; 12.5 μM Amlodipine, 48 hrs): 6.58%
Proportion of cell distribution in cell cycle (%) M4: ([2]; 12.5 μM Amlodipine, 48 hrs): 8.83%
Proportion of cell distribution in cell cycle (%) M1: [2, 8]: 24.89%
Proportion of cell distribution in cell cycle (%) M2: [2, 8]: 62.89%
Proportion of cell distribution in cell cycle (%) M3: [2, 8]: 4.22%
Proportion of cell distribution in cell cycle (%) M4: [2, 8]: 8.08%
Proportion of cell distribution in cell cycle (%) M1: [2, 9]: 30.77%
Proportion of cell distribution in cell cycle (%) M2: [2, 9]: 56.25%
Proportion of cell distribution in cell cycle (%) M3: [2, 9]: 5.46%
Proportion of cell distribution in cell cycle (%) M4: [2, 9]: 7.55%
Proportion of cell distribution in cell cycle (%) M1: [2, 10]: 39.90%
Proportion of cell distribution in cell cycle (%) M2: [2, 10]: 47.73%
Proportion of cell distribution in cell cycle (%) M3: [2, 10]: 5.03%
Proportion of cell distribution in cell cycle (%) M4: [2, 10]: 7.47%
Proportion of cell distribution in cell cycle (%) M1: [2, 11]: 56.61%
Proportion of cell distribution in cell cycle (%) M2: [2, 11]: 29.59%
Proportion of cell distribution in cell cycle (%) M3: [2, 11]: 7.08%
Proportion of cell distribution in cell cycle (%) M4: [2, 11]: 6.82%
cell division (cell cycle, in words) ([2]; 12.5 μM or more, 48 hrs): most cells were unable to undergo cell division
Proportion of cell distribution in cell cycle (%) M1: ([2]; 25 μM Amlodipine, 48 hrs): 57.32%
Proportion of cell distribution in cell cycle (%) M2: ([2]; 25 μM Amlodipine, 48 hrs): 28.75%
Proportion of cell distribution in cell cycle (%) M3: ([2]; 25 μM Amlodipine, 48 hrs): 8.02%
Proportion of cell distribution in cell cycle (%) M4: ([2]; 25 μM Amlodipine, 48 hrs): 6.10%
cell invasion (crystal violet staining) [3]: lower
Amlodipine concentration at which the best inhibitory effect on the growth of liver cancer cells is achieved [4]: greater than or equal to 12.5 μM
cell viability of liver cancer cells treated with Amlodipine ([4]; 1.5625-50 μM, 48 and 72 hrs, FIGS. 9, 11, 12): decreased
intracellular expression of apoptotic proteins (Western blotting) [5]: results in the intracellular expression of apoptotic proteins
Crude HR HRs (95% C.I.) ([6]; 24/30: Amlodipine at least 24 days within 30 days after cancer diagnosis): 0.66 (0.62-0.70)
Crude HR HRs (95% C.I.) ([6]; 48/60: Amlodipine at least 48 days within 60 days after cancer diagnosis): 0.62 (0.58-0.67)
Crude HR HRs (95% C.I.) ([6]; Amlodipine for 20 days within 90 days after diagnosis): 0.85 (0.80-0.90)
Crude HR HRs (95% C.I.) ([6]; day of treatment with Amlodipine 72/9): 0.62 (0.58-0.66)
Proportion of cell distribution in cell cycle (%) M1: ([7]; 1.5625 μM Amlodipine, 48 hrs): 1.58%
Proportion of cell distribution in cell cycle (%) M2: ([7]; 1.5625 μM Amlodipine, 48 hrs): 70.28%
Proportion of cell distribution in cell cycle (%) M3: ([7]; 1.5625 μM Amlodipine, 48 hrs): 8.89%
Proportion of cell distribution in cell cycle (%) M4: ([7]; 1.5625 μM Amlodipine, 48 hrs): 19.34%
Proportion of cell distribution in cell cycle (%) M1: ([7]; 3.125 μM Amlodipine, 48 hrs): 1.36%
Proportion of cell distribution in cell cycle (%) M2: ([7]; 3.125 μM Amlodipine, 48 hrs): 69.60%
Proportion of cell distribution in cell cycle (%) M3: ([7]; 3.125 μM Amlodipine, 48 hrs): 8.91%
Proportion of cell distribution in cell cycle (%) M4: ([7]; 3.125 μM Amlodipine, 48 hrs): 20.23%
Proportion of cell distribution in cell cycle (%) M1: ([7]; 6.25 μM Amlodipine, 48 hrs): 1.91%
Proportion of cell distribution in cell cycle (%) M2: ([7]; 6.25 μM Amlodipine, 48 hrs): 66.92%
Proportion of cell distribution in cell cycle (%) M3: ([7]; 6.25 μM Amlodipine, 48 hrs): 10.28%
Proportion of cell distribution in cell cycle (%) M4: ([7]; 6.25 μM Amlodipine, 48 hrs): 21.01%
Proportion of cell distribution in cell cycle (%) M1: ([7]; 12.5 μM Amlodipine, 48 hrs): 81.27%
Proportion of cell distribution in cell cycle (%) M2: ([7]; 12.5 μM Amlodipine, 48 hrs): 12.49%
Proportion of cell distribution in cell cycle (%) M3: ([7]; 12.5 μM Amlodipine, 48 hrs): 3.31%
Proportion of cell distribution in cell cycle (%) M4: ([7]; 12.5 μM Amlodipine, 48 hrs): 2.95%
Proportion of cell distribution in cell cycle (%) M1: [7, 8]: 5.01%
Proportion of cell distribution in cell cycle (%) M2: [7, 8]: 76.16%
Proportion of cell distribution in cell cycle (%) M3: [7, 8]: 6.10%
Proportion of cell distribution in cell cycle (%) M4: [7, 8]: 12.87%
Proportion of cell distribution in cell cycle (%) M1: [7, 9]: 16.20%
Proportion of cell distribution in cell cycle (%) M2: [7, 9]: 65.01%
Proportion of cell distribution in cell cycle (%) M3: [7, 9]: 6.24%
Proportion of cell distribution in cell cycle (%) M4: [7, 9]: 12.69%
Proportion of cell distribution in cell cycle (%) M1: [7, 10]: 65.46%
Proportion of cell distribution in cell cycle (%) M2: [7, 10]: 22.64%
Proportion of cell distribution in cell cycle (%) M3: [7, 10]: 4.81%
Proportion of cell distribution in cell cycle (%) M4: [7, 10]: 7.22%
Proportion of cell distribution in cell cycle (%) M1: [7, 11]: 83.26%
Proportion of cell distribution in cell cycle (%) M2: [7, 11]: 11.13%
Proportion of cell distribution in cell cycle (%) M3: [7, 11]: 1.73%
Proportion of cell distribution in cell cycle (%) M4: [7, 11]: 3.93%
cell division (cell cycle, in words) ([7]; 12.5 μM or more, 48 hrs): most cells were unable to undergo cell division
Proportion of cell distribution in cell cycle (%) M1: ([7]; 25 μM Amlodipine, 48 hrs): 99.75%
Proportion of cell distribution in cell cycle (%) M2: ([7]; 25 μM Amlodipine, 48 hrs): 0.22%
Proportion of cell distribution in cell cycle (%) M3: ([7]; 25 μM Amlodipine, 48 hrs): 0.00%
Proportion of cell distribution in cell cycle (%) M4: ([7]; 25 μM Amlodipine, 48 hrs): 0.94%
